In publication PMC5312321, “A general strategy to optimize immunogenicity of HLA-B*0702 restricted cryptic peptides from tumor associated antigens: Design of universal neo-antigen like tumor vaccines for HLA-B*0702 positive patients” (Oncotarget, 2016):
Entries after “also recorded” stand apart in the source; their conditions may differ. Marks after values point to notes of the source that are not given here.

Assays:
[1] = system: HLA-B*0702 transgenic mice; experiment: Vaccination of HLA-B*0702 transgenic mice; specific CTLs detected by cytotoxicity or IFNγ ELISPOT; type: in vivo, mouse; conditions: for immunogenicity in HLA-B*0702 transgenic mice (in words): specific CTL induction after vaccination, cytotoxicity (ratio 30/1) or IFNγ ELISpot; for Immunogenicity (number of responding mice/number of vaccinated mice): native peptides, 100 μg peptide in IFA s.c. with HBVcore128 helper epitope, twice at two weeks interval
Description: The HLA-B7 H-2 class-I knockout mice were previously described.
Mice were injected subcutaneously with 100 μg of peptide emulsified in Incomplete Freund's Adjuvant (IFA) in the presence of 150 μg of the I-A^b restricted HBVcore128 T helper epitope ([…]) twice at two weeks interval.
A particular protocol was applied for MAGE-A 274L9, with two injections of this peptide at two weeks interval and 15 days later one injection with each one of the native peptide.
On day 6 of culture the bulk responder populations were tested for specific cytotoxicity. […] Percentage of specific lysis was determined as: % Lysis = (Experimental Release-Spontaneous Release) / (Maximal Release-Spontaneous Release) × 100. Spontaneous release is obtained using medium only, maximum release with HCl 0.1 M.
Seven days after the last vaccination, spleens were removed and T cells were isolated by Ficoll centrifugation and tested ex vivo for the recognition of 10 μM of either the native or optimized peptide. IFNγ producing T cells were quantified by ELISpot using the Diaclone Kit Murine IFNγ ELISpot (Besançon, France) according to manufacturer's recommendations. 250 000 spleen T cells were distributed per well and tested for the recognition of 10 μM of either the native or optimized peptide. Positive control was Concanavalin A and negative control was medium alone. All conditions were tested in sixplicates.

[2] = system: CD8+ T cells from healthy donors; experiment: In vitro induction of specific CTLs from PBMC of healthy HLA-B*0702 donors (IFNγ intracellular staining or ELISPOT); type: cell-based, human
Description: CD8+ T cells from healthy donors were in vitro stimulated with autologous dendritic cells loaded with each optimized cryptic peptide. After four stimulations, proliferating cells were tested for the presence of IFNγ producing CTLs upon stimulation with T2-B7 cells loaded with optimized or native peptides either by intracellular IFNγ staining or by IFNγ ELISPOT assay.
PBMC were collected by leukapheresis from healthy HLA-A*B702 volunteers. Dendritic cells (DC) were produced from adherent cells cultured with 500 IU/ml GM-CSF and 500 IU/ml IL-4, in complete synthetic medium (AIMV) for seven days. On day 7, DCs were pulsed with 10 μM of peptide during 2 hours and CD8^+ cells were purified by negative selection with CD8 Dynabeads Untouched Human CD8. CD8^+ cells (2 × 10^5) + CD8^− cells (6 × 10^4) were stimulated with 3 × 10^4 peptide-pulsed DC in AIMV medium supplemented with 1000 IU/ml IL-6 and 5 IU/ml IL-12 in round-bottomed 96-well plates.
From day 7, cultures were stimulated weekly with peptide-loaded DC in the presence of 20 IU/ml IL-2 and 10 ng/ml IL-7, 1 μg/ml anti-CD40 and 500 IU/ml IFNγ.
After the third stimulation, CD8 cells were maintained in AIMV supplemented with 20 IU/ml IL-2 during 7 days. Cultures were starved overnight with AIMV and then were tested in an intracellular IFNγ and an IFNγ ELISpot assay.
Stimulated T cells (10^5) from each pool were incubated with 2 × 10^5 T2 cells loaded with stimulating peptide in the presence of 20 μg/ml Brefeldin-A (Sigma, Oakville, Canada). Six hours later they were washed, stained with r-phycoerythrin-conjugated anti-CD8 antibody (Caltag Laboratories, Burlingame, CA, USA) in PBS for 25 min at 4°C, washed again, and fixed with 4% PFA. The cells were then permeabilized with PBS, 0.5% BSA, 0.2% saponin (Sigma, Oakville, Canada), and labelled with an allophycocyanin-conjugated anti-IFNγ mAb (PharMingen, Mississauga, Canada) for 25 min at 4°C before analysis with a FACSCalibur® flow cytometer.
Stimulated T cells were splited in four pools and IFNγ producing T cells was quantified in each pool by ELISpot using the Diaclone Kit Human IFNγ ELISpot (Besançon, France) according to manufacturer's recommendations. 250 000 cells were distributed per well and tested for the recognition of 10 μM of either the native or optimized peptide. Positive control was Concanavalin A and negative control was medium alone or an irrelevant peptide. All conditions were tested in sixplicates.

[3] = molecular target: T1, HLA-B*0702 (Homo sapiens, UniProt P01889); experiment: Measurement of peptide relative affinity to HLA-B*0702 (surface expression on T2-B7 cells); type: cell-based; conditions: for RA (Relative Affinity): 37°C 16 hours, peptide 100 μM to 0.1 μM, ME-1 mAb staining, RA = concentration inducing 20% of HLA-B*0702 expression / that of reference R10V, mean ± SD, at least three experiments, ≥ 10 = 10 or not measurable; for binding to / affinity for HLA-B*0702 (in words): relative to reference peptide R10V
T1 construct: expressed in transfected cells; host or cells: human T2-B7 cells (T2 transfected with HLA-B*0702)
Description: The protocol used has been described previously. Briefly, T2-B7 cells were incubated at 37°C for 16 hours with peptides concentrations ranging from 100 μM to 0.1 μM (100 μM, 10 μM, 1 μM and 0.1μM), and then stained with ME-1 monoclonal antibody (mAb) to quantify the surface expression of HLA-B*0702. For each peptide concentration, the HLA-B*0702 specific staining was calculated as the percentage of staining obtained with 100 μM of the reference peptide CMV265–274 (R10V; […], SEQ ID NO: 9). The relative affinity (RA) was determined as: RA = (Concentration of each peptide that induces 20% of HLA-B*0702-expression/Concentration of the reference R10V peptide that induces 20% of HLA-B*0702 expression). In case of non-binders peptide, RA is not evaluable since the 20% of HLA-B*0702 expression is not reach even with the highest concentration of peptide.

## APKHSDCLA [HER2/neu246A1, optimized Her2/neu246 modified at position 1 by an alanine]
[1]; HLA-B*0702 transgenic mice, target cells loaded with native peptide
  cross recognition of the native peptide by CTLs induced by the optimized peptide in mice (in words): able to recognize target cells loaded with their corresponding native peptide
[1]; mice vaccinated twice with the optimized peptide, cytotoxicity or IFNγ ELISPOT against target cells loaded with the optimized peptide
  Immunogenicity against optimized peptide (responding mice/vaccinated mice): 8/12
[1]; mice vaccinated twice with the optimized peptide, target cells loaded with the corresponding native peptide
  Immunogenicity against native peptide (responding mice/vaccinated mice): 5/12
[1]
  immunogenicity in HLA-B*0702 transgenic mice (in words): immunogenic
[2]; CD8+ T cells from healthy donors, four stimulations with peptide loaded autologous DC
  immunogenicity in vitro in human PBMC (in words): confirmed
[2]; human healthy donor PBMC stimulated with optimized peptide loaded DC, T2-B7 cells loaded with optimized peptide
  Immunogenicity against optimized peptide (number of positive culture/number of total cultures): 2/4
[2]; human healthy donor PBMC stimulated with optimized peptide, T2-B7 cells loaded with corresponding native peptide
  Immunogenicity against native peptide (number of positive culture/number of total cultures): 1/4

## APLSLGLET [Hsp70_397, Hsp70 derived native cryptic peptide]
[3]
  RA (Relative Affinity): ≥ 10
  binding to / affinity for HLA-B*0702 (in words): low affinity
[1]
  immunogenicity in HLA-B*0702 transgenic mice (in words): only the high affinity TERT4 was immunogenic

## APRCRAVRSL [TERT4, TERT derived peptide with complete consensus motif A1P2R3L9, control, dominant peptide]
[3]; SD
  RA (Relative Affinity): 0.74 ± 0.12
[3]
  binding to / affinity for HLA-B*0702 (in words): strongly bind to HLA-B*0702; also recorded: strong affinity
[1]
  immunogenicity in HLA-B*0702 transgenic mice (in words): immunogenic

## APRGVPQIEV [HSP70_466, HSP70 derived native peptide]
[1]
  Immunogenicity (number of responding mice/number of vaccinated mice): 3/3
  immunogenicity in HLA-B*0702 transgenic mice (in words): immunogenic

## APRSLGLEL [Hsp70_397 R3L9, optimized Hsp70_397, arginine at position 3 and leucine at C-terminal position]
[3]; SD
  RA (Relative Affinity): 1 ± 0.6
[3]
  binding to / affinity for HLA-B*0702 (in words): high HLA-B*0702 affinity

## APRSPLAPS [Her2/neu1069, Her2/neu derived native peptide]
[1]
  Immunogenicity (number of responding mice/number of vaccinated mice): 5/7
  immunogenicity in HLA-B*0702 transgenic mice (in words): immunogenic

## APRTKAEML [MAGE-A1_121 A1R3, optimized MAGE-A1_121, alanine at position 1 and arginine at position 3]
[3]; SD
  RA (Relative Affinity): 2.36 ± 0.28
[3]
  binding to / affinity for HLA-B*0702 (in words): high HLA-B*0702 affinity

## APVTKAEML [MAGE-A1_121 A1, MAGE-A1_121 with alanine at position 1]
[3]
  RA (Relative Affinity): ≥ 10
  binding to / affinity for HLA-B*0702 (in words): fail to bind to HLA-B*0702 with high affinity

## DPRRLVQLL [TERT444, TERT derived native cryptic peptide]
[3]
  RA (Relative Affinity): ≥ 10
  binding to / affinity for HLA-B*0702 (in words): low affinity
[1]
  immunogenicity in HLA-B*0702 transgenic mice (in words): only the high affinity TERT4 was immunogenic; also recorded: non-immunogenic

## EPFTKAEML [MAGE-A2_121, MAGE-A derived native cryptic peptide]
[3]
  RA (Relative Affinity): ≥ 10
  binding to / affinity for HLA-B*0702 (in words): low affinity

## EPITKAEIL [MAGE-A4_121, MAGE-A derived native cryptic peptide]
[3]
  RA (Relative Affinity): ≥ 10
  binding to / affinity for HLA-B*0702 (in words): low affinity

## EPVTKAEML [MAGE-A1_121, MAGE-A derived native cryptic peptide]
[3]
  RA (Relative Affinity): ≥ 10
  binding to / affinity for HLA-B*0702 (in words): low affinity

## GPKHSDCLA [Her2/neu246, Her2/neu derived native peptide]
[1]
  Immunogenicity (number of responding mice/number of vaccinated mice): 0/9
  immunogenicity in HLA-B*0702 transgenic mice (in words): non immunogenic

## GPRALAETS [MAGE-A1_267, native peptide shared by MAGE-A1 and MAGE-A4]
[1]
  Immunogenicity (number of responding mice/number of vaccinated mice): 0/3
  immunogenicity in HLA-B*0702 transgenic mice (in words): non immunogenic

## GPRALIETS [MAGE-A2_274, native peptide shared by MAGE-A2 and MAGE-A6]
[1]
  Immunogenicity (number of responding mice/number of vaccinated mice): 0/3
  immunogenicity in HLA-B*0702 transgenic mice (in words): non immunogenic

## GPRALVETS [MAGE-A3_274, native peptide shared by MAGE-A3 and MAGE-A12]
[1]
  Immunogenicity (number of responding mice/number of vaccinated mice): 2/3*
  immunogenicity in HLA-B*0702 transgenic mice (in words): very weak immunogenicity; also recorded: very weakly immunogenic

## SPKANKEIL [Her2/neu760, Her2/neu derived native peptide]
[1]
  Immunogenicity (number of responding mice/number of vaccinated mice): 4/9
  immunogenicity in HLA-B*0702 transgenic mice (in words): immunogenic

## SPREGPLPA [Her2/neu1151, Her2/neu derived native peptide]
[1]
  Immunogenicity (number of responding mice/number of vaccinated mice): 1/3
[1]; listed as HER2/neu1151
  immunogenicity in HLA-B*0702 transgenic mice (in words): immunogenic
[1]; listed as HER-2/neu1151
  immunogenicity in HLA-B*0702 transgenic mice (in words): very weakly immunogenic

## SPRLQLSND [CEA188, CEA derived native peptide]
[1]
  Immunogenicity (number of responding mice/number of vaccinated mice): 0/3
  immunogenicity in HLA-B*0702 transgenic mice (in words): non immunogenic

## YPEEISSMVL [Hsp70_115, Hsp70 derived native cryptic peptide]
[3]
  RA (Relative Affinity): ≥ 10
  binding to / affinity for HLA-B*0702 (in words): low affinity
[1]
  immunogenicity in HLA-B*0702 transgenic mice (in words): only the high affinity TERT4 was immunogenic

## YPVTNAVITV [Hsp70_137, Hsp70 derived native cryptic peptide]
[3]
  RA (Relative Affinity): ≥ 10
  binding to / affinity for HLA-B*0702 (in words): low affinity
[1]
  immunogenicity in HLA-B*0702 transgenic mice (in words): only the high affinity TERT4 was immunogenic
